# Test results as given in BindingDB's records for doi:10.1021/jm900075g (Wyeth Research, 2009).
# Molecular target: RAC-alpha serine/threonine-protein kinase (Homo sapiens, UniProt P31749)
# Assay: Homogeneous Time-Resolved Fluorescence Resonance Energy Transfer Lance Assay
# Conditions: pH 7.4; 22 °C
# Description: AKT1 was assayed using constitutively active Myr-AKT1 in low-binding 96-well plates. The kinase reactions were initiated by the addition of assay mix containing kinase assay buffer, ATP, and a biotinylated substrate peptide. After incubation, Phosphorylated biotin-GSK3alpha was detected by the time-resolved fluorescence resonance energy transfer Lance format with all reagents obtained from Perkin-Elmer. Subsequently, the plates were read in a Victor plate reader (Wallac/Perkin-Elmer).
# Chain of RAC-alpha serine/threonine-protein kinase (P31749 whole entry): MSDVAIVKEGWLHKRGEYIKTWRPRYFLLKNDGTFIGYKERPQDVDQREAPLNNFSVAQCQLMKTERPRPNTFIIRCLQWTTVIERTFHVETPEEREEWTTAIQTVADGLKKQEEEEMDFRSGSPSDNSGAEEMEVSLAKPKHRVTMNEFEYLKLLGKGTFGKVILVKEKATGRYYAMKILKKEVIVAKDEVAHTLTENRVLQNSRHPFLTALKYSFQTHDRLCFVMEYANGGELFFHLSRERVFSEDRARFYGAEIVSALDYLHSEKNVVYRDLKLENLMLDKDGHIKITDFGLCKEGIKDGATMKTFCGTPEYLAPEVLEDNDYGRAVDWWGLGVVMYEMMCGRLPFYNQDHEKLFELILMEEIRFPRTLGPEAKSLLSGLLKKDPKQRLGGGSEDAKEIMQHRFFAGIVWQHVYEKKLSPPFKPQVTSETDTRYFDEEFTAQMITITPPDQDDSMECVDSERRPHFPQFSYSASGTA
row,SMILES,IC50
1,C[C@H]1O[C@@H]2CC(=O)O[C@@H]2C2=C1C(=O)c1c(ccc(C3C[C@@H](N(C)C)[C@H](O)[C@@H](C)O3)c1O)C2=O (some centres undefined) [Lactoquinomycin A],149 nM
2,"O=C1C[C@@H]2O[C@H](c3ccsc3)C3=C(C(=O)c4ccccc4C3=O)[C@@H]2O1 [Pyranonaphthoquinone (PNQ) lactone, 11e]",99 nM
3,C[C@H]1O[C@@H]2CC(=O)O[C@@H]2C2=C1C(=O)c1c(O)cccc1C2=O,313 nM
4,"O=C1C[C@H]2O[C@@H](c3ccsc3)C3=C(C(=O)c4ccccc4C3=O)[C@H]2O1 [Pyranonaphthoquinone (PNQ) lactone, 11f]",122 nM
